Key:
MCF7 = assay: Anticancer activity against human MCF7 cells after 24 hrs by MTT assay; type: functional, cell-based; settings: MCF7, 24 h
MDA-MB-231 = assay: Anticancer activity against human MDA-MB-231 cells after 24 hrs by MTT assay; type: functional, cell-based; settings: MDA-MB-231, 24 h

Cc1ccc(S(=O)(=O)N2Cc3ccccc3OC[C@@H]2Cc2ccc(O)cc2)cc1
IC50 (MCF7): 20 µM
IC50 (MDA-MB-231): 30 µM

From ChEMBL document CHEMBL4033627, “Quest for steroidomimetics: Amino acids derived steroidal and nonsteroidal architectures” (Eur J Med Chem, 2017)
